Our source for the DC50, IC50 and EC50 values is patent publication US20230391772A1, “METHODS AND COMPOSITIONS FOR TARGETED PROTEIN DEGRADATION” (Ranok Therapeutics (Hangzhou) Co. Ltd., priority 2020, published 2023).

Assay [1] has as its target T1, KRAS(G12C) (Homo sapiens, UniProt P01116, G12C). The assay is described as follows: KRAS(G12C) Western blot protein degradation assay in LU65A cells. Particulars: 6 hr. More on the design: LU65A human lung cancer cell line, which expresses KRAS(G12C); host or cells: LU65A. Type of assay: cell-based. As to the method:
The following cancer cell lines were employed: BT-474 human breast carcinoma (ATCC, #HTB-20); MIA PaCa-2 human pancreatic carcinoma [2 copies KRAS(G12C)](ATCC, #CRL-1420); NCI-H23 human non-small cell lung cancer [1 copy KRAS(G12C)](ATCC, #CRL-5800); NCI-H358 human non-small cell lung cancer [1 copy KRAS(G12C)](ATCC, #CRL-5807); LU65A human lung carcinoma (Pharmaron, Beijing, China). Cell lines were cultured essentially according to ATCC and Pharmaron recommendations.
KRAS(G12C) Western Blot Protein Degradation Assay
The MIA PaCa-2 human pancreatic carcinoma cell line and LU65A human lung cancer cell line, which expresses KRAS(G12C), were seeded in 6- or 12-well tissue culture plates, and after 1 hr, test compounds were added at various concentrations and incubated at 37° C./5% CO2 for 48 hr (MIA Paca-2) and 6 hr (LU65A) respectively. Cells were then washed with cold PBS, aspirated and cold RIPA buffer containing a protease/phosphatase inhibitor cocktail was added to lyse cells. After centrifugation, the total protein concentrations of cell lysates were determined using the BCA protein assay. Samples were normalized for equivalent protein concentrations, 5×SDS-PAGE loading buffer added and denatured at 100° C. for 10 min. 20 μl of each sample/well was loaded on a SDS-PAGE gel and electrophoresed for 20 min at 80 V, then 120 V for 1.5 hr. Gels were then electroblotted to nitrocellulose membranes using a wet-transfer method at 250 mA for 2.5 hr. Membranes were incubated with blocking buffer for 1 hr and washed 3 times with TBST for 5 min. Membranes were then incubated with anti-KRAS (Sigma-Aldrich, #SAB1404011) and anti-β-Actin monoclonal antibodies (Cell Signaling Technology, #3700) diluted in blocking buffer at 4° C. overnight per the manufacturer's recommendations. After washing 3 times, blots were incubated with appropriately labeled secondary antibodies for 1 hr at room temperature and washed again. Fluorescence imaging and quantitation was performed using a LI-COR Odyssey. Results was analyzed using GraphPad Prism 7 software. Compound degradation of was determined by the following equation and DC50 values (the concentration at which 50% of the maximal degradation of KRAS occurs) calculated using GraphPad Prism 7 software:
% Inhibition=100−(D−B)/(S−B)*100%. • S: Fluorescence intensity of cells with antibody • D: Fluorescence intensity of compound-treated cells with antibody • B: Fluorescence intensity of cells without antibody
Background: Immunoblotting shows a protein as a band on a membrane.

Assay [2] deals with T1, KRAS(G12C). The assay is described as follows: KRAS(G12C)/SOS1 homogeneous time-resolved fluorescence (HTRF) assay. More on the design: purchased Cisbio 63ADK000CB16PEG. Particulars: absence of GTP, 4° C. for 3 hr, read-out: KRAS (G12C) binding. Put shortly:
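HTRF kit measuring compound-induced block of KRAS(G12C)-SOS1 interaction without GTP. Compounds tested as 3-fold serial dilutions down to 1.02 nM, incubated with reaction components 3 h at 4 °C in sealed plates before fluorescence read.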

Assay [3] relates to MIA PaCa-2 human pancreatic carcinoma. The assay is described as follows: MIA PaCa-2 CCK-8 proliferation assay. The format is cell-based. As to conditions: Homo sapiens, MIA PaCa-2, 72 h, MIA PaCa-2 cells. The method, boiled down: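 KRAS(G12C) lines were used: MIA PaCa-2 with 2 copies, and NCI-H358 and NCI-H23 with 1 copy each. Cells were treated with 3-fold compound dilutions from 20 μM to 1.02 nM, and proliferation was read by CCK-8 absorbance. % inhibition was calculated against DMSO-treated cells after subtracting the cell-free medium blank.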
For orientation: Tetrazolium assays rely on reduction of a dye to a coloured formazan, in cell work by metabolically active cells.

T1 sequence (P01116 1-188 isoform P01116-2 G12C): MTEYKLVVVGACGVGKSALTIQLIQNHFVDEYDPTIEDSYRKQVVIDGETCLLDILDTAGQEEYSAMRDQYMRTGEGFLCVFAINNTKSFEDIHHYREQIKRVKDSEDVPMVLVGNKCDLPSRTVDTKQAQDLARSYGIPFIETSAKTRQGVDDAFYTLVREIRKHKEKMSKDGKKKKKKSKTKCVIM

For orientation: DC50 means the concentration giving 50% degradation. By EC50 is commonly meant the concentration giving half of the maximal effect. In the case of `C=CC(=O)N1CCN(c2nc(OC[C@@H]3C[C@@H](N(C)C(=O)C4CCN(Cc5ccc(-n6c(C(=O)NCC(F)(F)F)nnc6-c6cc(C(C)C)c(O)cc6O)cc5)CC4)CN3C)nc3c2CCN(c2cccc4cccc(Cl)c24)C3)C[C@@H]1CC#N` [Compound 235, N-((3R,5S)-5-(((4-((S)-4-acryloyl-3-(cyanomethyl)piperazin-1-yl)-7-(8-chloronaphthalen-1-yl)-5,6,7,8-tetrahydropyrido[3,4-d]pyrimidin-2-yl)oxy)methyl)-1-methylpyrrolidin-3-yl)-1-(4-(3-(2,4-dihydroxy-5-isopropylphenyl)-5-((2,2,2-trifluoroethyl)carbamoyl)-4H-1,2,4-triazol-4-yl)benzyl)-N-methylpiperidine-4-carboxamide], the DC50 on KRAS(G12C) [1] was > 1000 nM. The IC50 at KRAS(G12C) [2] lay within 100 to 1000 nM. The EC50 in assay [3] lay within 100 to 1000 nM.
For `C=CC(=O)N1CCN(c2nc(OCCN3CCC(N4CCN(Cc5ccc(-n6c(O)nnc6-c6cc(C)c(O)cc6O)cc5)CC4)CC3)nc3c2CCN(c2cccc4cccc(Cl)c24)C3)C[C@@H]1CC#N` [Compound 236, (S)-2-(1-acryloyl-4-(7-(8-chloronaphthalen-1-yl)-2-(2-(4-(4-(4-(3-(2,4-dihydroxy-5-methylphenyl)-5-hydroxy-4H-1,2,4-triazol-4-yl)benzyl)piperazin-1-yl)piperidin-1-yl)ethoxy)-5,6,7,8-tetrahydropyrido[3,4-d]pyrimidin-4-yl)piperazin-2-yl)acetonitrile], the half-maximal degradation concentration (DC50) on KRAS(G12C) [1] was > 1000 nM. Further, on KRAS(G12C) [2], the IC50 is < 100 nM. The concentration for a half-maximal effect (EC50) in assay [3] is > 1000 nM.
As to `C=CC(=O)N1CCN(c2nc(OCCN3CCC(N4CCN(Cc5ccc(-n6c(O)nnc6-c6cc(C(C)C)c(O)cc6O)cc5)CC4)CC3)nc3c2CCN(c2cccc4cccc(Cl)c24)C3)C[C@@H]1CC#N` [Compound 237, (S)-2-(1-acryloyl-4-(7-(8-chloronaphthalen-1-yl)-2-(2-(4-(4-(4-(3-(2,4-dihydroxy-5-isopropylphenyl)-5-hydroxy-4H-1,2,4-triazol-4-yl)benzyl)piperazin-1-yl)piperidin-1-yl)ethoxy)-5,6,7,8-tetrahydropyrido[3,4-d]pyrimidin-4-yl)piperazin-2-yl)acetonitrile], at KRAS(G12C) [1], the half-maximal degradation concentration (DC50) was > 1000 nM. At KRAS(G12C) [2], the IC50 lay in the range of 100 to 1000 nM. The same molecule displayed a concentration giving a half-maximal response (EC50) in assay [3] of 100 to 1000 nM.
`C=CC(=O)N1CCN(c2nc(OC[C@@H]3CC[C@H](CN4CCN(C(=O)C5CCN(Cc6ccc(-n7c(C(=O)NCC)nnc7-c7cc(C(C)C)c(O)cc7O)cc6)CC5)CC4)N3C)nc3c2CCN(c2cccc4cccc(Cl)c24)C3)C[C@@H]1CC#N` [Compound 240, 4-(4-{[4-(4-{[(2R,5S)-5-({[7-(8-chloronaphthalen-1-yl)-4-[(3S)-3-(cyanomethyl)-4-(prop-2-enoyl)piperazin-1-yl]-5H,6H,8H-pyrido[3,4-d]pyrimidin-2-yl]oxy}methyl)-1-methylpyrrolidin-2-yl]methyl}piperazine-1-carbonyl)piperidin-1-yl]methyl}phenyl)-5-(2,4-dihydroxy-5-isopropylphenyl)-N-ethyl-1,2,4-triazole-3-carboxamide] had a half-maximal degradation concentration (DC50) at KRAS(G12C) [1] of 100 to 1000 nM. The IC50 on KRAS(G12C) [2] was < 100 nM. For the same molecule, the EC50 in assay [3] was < 100 nM.
With `C=CC(=O)N1CCN(c2nc(OC[C@@H]3C[C@H](N4CCN(Cc5ccc(-n6c(O)nnc6-c6cc(C(C)C)c(O)cc6O)cc5)CC4)CN3C)nc3c2CCN(c2cccc4cccc(Cl)c24)C3)C[C@@H]1CC#N` [Compound 241, 2-[(2S)-4-[7-(8-chloronaphthalen-1-yl)-2-{[(2S,4S)-4-[4-({4-[3-(2,4-dihydroxy-5-isopropylphenyl)-5-hydroxy-1,2,4-triazol-4-yl]phenyl}methyl)piperazin-1-yl]-1-methylpyrrolidin-2-yl]methoxy}-5H,6H,8H-pyrido[3,4-d]pyrimidin-4-yl]-1-(prop-2-enoyl)piperazin-2-yl]acetonitrile], the DC50 at KRAS(G12C) [1] was > 1000 nM. Further, the IC50 on KRAS(G12C) [2] was < 100 nM. Also, the EC50 in assay [3] lay within 100 to 1000 nM.
In the case of `C=CC(=O)N1CCN(c2nc(OCCN3CCN(C(=O)C4CCN(Cc5ccc(-n6c(C(N)=O)nnc6-c6cc(C(C)C)c(O)cc6O)cc5)CC4)C[C@@H]3CN(C)C)nc3c2CCN(c2cccc4cccc(Cl)c24)C3)C[C@@H]1CC#N` [Compound 260, 4-(4-((4-((S)-4-(2-((4-((S)-4-acryloyl-3-(cyanomethyl)piperazin-1-yl)-7-(8-chloronaphthalen-1-yl)-5,6,7,8-tetrahydropyrido[3,4-d]pyrimidin-2-yl)oxy)ethyl)-3-((dimethylamino)methyl)piperazine-1-carbonyl)piperidin-1-yl)methyl)phenyl)-5-(2,4-dihydroxy-5-isopropylphenyl)-4H-1,2,4-triazole-3-carboxamide], on KRAS(G12C) [1], the DC50 was > 1000 nM. The EC50 in assay [3] was < 100 nM.
Consider `C=CC(=O)N1CCN(c2nc(OC[C@@H]3C[C@H](N4CCN(Cc5ccc(-n6c(O)nnc6-c6cc(C)c(O)cc6O)cc5)CC4)CN3C)nc3c2CCN(c2cccc4ccccc24)C3)C[C@@H]1CC#N` [Compound 270, 2-[(2S)-4-(2-{[(2S,4S)-4-[4-({4-[3-(2,4-dihydroxy-5-methylphenyl)-5-hydroxy-1,2,4-triazol-4-yl]phenyl}methyl)piperazin-1-yl]-1-methylpyrrolidin-2-yl]methoxy}-7-(naphthalen-1-yl)-5H,6H,8H-pyrido[3,4-d]pyrimidin-4-yl)-1-(prop-2-enoyl)piperazin-2-yl]acetonitrile], for which the DC50 on KRAS(G12C) [1] lay within 100 to 1000 nM. In addition, in assay [3], the concentration giving a half-maximal response (EC50) is > 1000 nM.
For the molecule `C=CC(=O)N1CCN(c2nc(OC[C@@H]3C[C@H](N4CCN(Cc5ccc(-n6c(C(=O)NCC)nnc6-c6cc(C(C)C)c(O)cc6O)cc5)CC4)CN3C)nc3c2CCN(c2cccc4ccccc24)C3)C[C@@H]1CC#N` [Compound 271, 4-[4-({4-[(3S,5S)-5-[({4-[(3S)-3-(cyanomethyl)-4-(prop-2-enoyl)piperazin-1-yl]-7-(naphthalen-1-yl)-5H,6H,8H-pyrido[3,4-d]pyrimidin-2-yl}oxy)methyl]-1-methylpyrrolidin-3-yl]piperazin-1-yl}methyl)phenyl]-5-(2,4-dihydroxy-5-isopropylphenyl)-N-ethyl-1,2,4-triazole-3-carboxamide], the half-maximal degradation concentration (DC50) at KRAS(G12C) [1] was 100 to 1000 nM. In assay [3], this molecule came in with a 50% effective concentration (EC50) of 100 to 1000 nM.
On to `C=CC(=O)N1CCN(c2nc(OC[C@@H]3CC[C@H](CN4CCN(Cc5ccc(-n6c(O)nnc6-c6cc(C(C)C)c(O)cc6O)cc5)CC4)N3C)nc3c2CCN(c2cccc4ccccc24)C3)C[C@@H]1CC#N` [Compound 272, 2-[(2S)-4-(2-{[(2S,5R)-5-{[4-({4-[3-(2,4-dihydroxy-5-isopropylphenyl)-5-hydroxy-1,2,4-triazol-4-yl]phenyl}methyl)piperazin-1-yl]methyl}-1-methylpyrrolidin-2-yl]methoxy}-7-(naphthalen-1-yl)-5H,6H,8H-pyrido[3,4-d]pyrimidin-4-yl)-1-(prop-2-enoyl)piperazin-2-yl]acetonitrile], for which the DC50 on KRAS(G12C) [1] is < 100 nM. The concentration giving a half-maximal response (EC50) in assay [3] is < 100 nM.
With `C=CC(=O)N1CCN(c2nc(OC[C@@H]3CC[C@H](CN4CCN(Cc5ccc(-n6c(O)nnc6-c6cc(C(C)C)c(O)cc6O)cc5)CC4)N3C)nc3c2CCN(c2cccc4cccc(C)c24)C3)C[C@@H]1CC#N` [Compound 273, 2-[(2S)-4-(2-{[(2S,5R)-5-{[4-({4-[3-(2,4-dihydroxy-5-isopropylphenyl)-5-hydroxy-1,2,4-triazol-4-yl]phenyl}methyl)piperazin-1-yl]methyl}-1-methylpyrrolidin-2-yl]methoxy}-7-(8-methylnaphthalen-1-yl)-5H,6H,8H-pyrido[3,4-d]pyrimidin-4-yl)-1-(prop-2-enoyl)piperazin-2-yl]acetonitrile], the half-maximal degradation concentration (DC50) at KRAS(G12C) [1] was in the range of 100 to 1000 nM. The EC50 in assay [3] lay within 100 to 1000 nM.
